Structures can show the parent of a compound that is named as a salt. Where two headings read alike, the source gives them in different places.
Legend:
[1] = system: HSC-4 squamous cell carcinoma cells; assay: MTT cytotoxicity against HSC-4 squamous cell carcinoma; type: cell-based, human; details: for CC50: Homo sapiens, read-out: HSC-4 CC50; for HSC-4 SI: average CC50 HGF/HPLF/HPC divided by CC50 HSC-4
Experimental: (§1) The method for evaluating 2a–f and 3a–e against human oral squamous cell carcinoma (OSCC) cell lines (Ca9-22, HSC-2, HSC-3, HSC-4) and human non-malignant oral cells [human gingival fibroblast (HGF), human periodontal ligament fibroblast (HPLF), and human pulp cell (HPC)] have been reported previously, except the length of time of this bioassay was extended from 24 h to 48 h. In brief, different quantities of the compounds were incubated with the cells in Dulbecco’s modified eagle medium (DMEM), which was supplemented with 10% FBS and antibiotics. The cell viability was determined by the 3-(4,5-dimethylthiazol-2-yl)-2,5-diphenyl-2H-tetrazolium bromide (MTT) method as summarized previously (Figure 4).

[2] = system: Ca9-22, HSC-2, HSC-3, and HSC-4 squamous cell carcinoma cell lines; assay: Average over Ca9-22, HSC-2, HSC-3 and HSC-4 OSCC cell lines; type: cell-based, human; details: for CC50: read-out: Average CC50; for Average SI: average of SI for four OSCC cell lines
Experimental: as §1

[3] = MTT cytotoxicity against human gingival fibroblast (HGF); type: cell-based; details: human, human gingival fibroblasts (HGF), non-malignant oral cells
Experimental: as §1

[4] = system: HSC-2 squamous cell carcinoma cells; assay: MTT cytotoxicity against HSC-2 squamous cell carcinoma; type: cell-based, human; details: for CC50: Homo sapiens, read-out: HSC-2 CC50; for HSC-2 SI: average CC50 HGF/HPLF/HPC divided by CC50 HSC-2
Experimental: as §1

HT29 colon cancer cells = assay: Cytotoxicity against HT29 colon cancer cells; type: cell-based, human; details: for IC50: 48 h; for HT29 SI (selectivity index): IC50 CRL1790 / IC50 HT29
Experimental: (§2) The culture medium was supplemented with 10% heat-inactivated fetal bovine serum (FBS) and 1% penicillin–streptomycin antibiotics. The time of the bioassays was 48 h. The determinations were undertaken in triplicate on three different occasions.

[5] = system: HSC-3 squamous cell carcinoma cells; assay: MTT cytotoxicity against HSC-3 squamous cell carcinoma; type: cell-based, human; details: for CC50: Homo sapiens, read-out: HSC-3 CC50; for HSC-3 SI: average CC50 HGF/HPLF/HPC divided by CC50 HSC-3
Experimental: as §1

[6] = system: HCT116 and HT29 colon cancer cells; assay: Average over HCT116 and HT29 colon cancer cells; type: cell-based, human; details: for IC50: Homo sapiens, average of HCT116 and HT29, unit printed only for the single cell-line columns; for Average SI: average of SI for HCT116 and HT29; for PSE (potency-selectivity expression): reciprocal of average IC50 x average SI x 100, colon cells
Experimental: as §2

[7] = Average over HGF, HPLF and HPC non-malignant oral cells; type: cell-based, human; details: human, HPLF and HPC non-malignant oral cells (average), average of HGF
Experimental: as §1

[8] = MTT cytotoxicity against human periodontal ligament fibroblast (HPLF); type: cell-based; details: human, human periodontal ligament fibroblasts (HPLF), non-malignant oral cells
Experimental: as §1

[9] = system: Ca9-22 squamous cell carcinoma cells; assay: MTT cytotoxicity against Ca9-22 squamous cell carcinoma; type: cell-based, human; details: for CC50: Homo sapiens, read-out: Ca9-22 CC50; for Ca9-22 SI: average CC50 HGF/HPLF/HPC divided by CC50 Ca9-22
Experimental: as §1

[10] = system: CRL1790 non-malignant colon cells; assay: Cytotoxicity against CRL1790 non-malignant colon cells; type: cell-based; details: Homo sapiens, 48 h
Experimental: as §2

[11] = MTT cytotoxicity against human pulp cell (HPC); type: cell-based; details: human, human pulp cells (HPC), non-malignant oral cells
Experimental: as §1

[12] = system: HCT116 colon cancer cells; assay: Cytotoxicity against HCT116 colon cancer cells; type: cell-based, human; details: for IC50: Homo sapiens, HCT-116, 48 h, 48 h; for HCT116 SI (selectivity index): IC50 CRL1790 / IC50 HCT116
Experimental: as §2

[13] = Homo sapiens, average of four OSCC cell lines

| SMILES | IC50 [6] | CC50 ([1]; HSC-4, 48 h, MTT) | CC50 [2, 13] | Average SI [2] | CC50 at 48 h [3] | CC50 ([4]; HSC-2, 48 h, MTT) | HSC-2 SI [4] | IC50 (HT29 colon cancer cells; Homo sapiens, HT-29, 48 h) | HT29 SI (selectivity index) (HT29 colon cancer cells) | CC50 ([5]; HSC-3, 48 h, MTT) | HSC-3 SI [5] | Average SI [6] | PSE (potency-selectivity expression) [6] | CC50 at 48 h [7] | CC50 at 48 h [8] | CC50 ([9]; Ca9-22, 48 h, MTT) | Ca9-22 SI [9] | IC50 [10] | CC50 at 48 h [11] | HSC-4 SI [1] | also measured |
| --- | --- | --- | --- | --- | --- | --- | --- | --- | --- | --- | --- | --- | --- | --- | --- | --- | --- | --- | --- | --- | --- |
| COc1ccc(/C=C2\CNC/C(=C\c3ccc(O)c(CN4CCOCC4)c3)C2=O)cc1OC [Compound 2e, 3-[3-(4-Morpholinomethyl)-4-hydroxybenzylidene]-5-(3,4-dimethoxybenzylidene)-4-piperidone dihydrochloride] | 3.56 µM | – | 69.3 µM | 3.12 | > 200 µM | 88.5 µM | >2.26 | 3.75 ± 0.78 µM | 7.31 | 73.2 µM | >2.73 | 7.72 | 217 | > 200 µM | > 200 µM | 41.8 µM | >4.79 | 27.4 ± 0.42 µM | > 200 µM | – | IC50 [12]: 3.37 ± 0.68 µM; HCT116 SI (selectivity index) [12]: 8.13 |
| O=c1[nH]cc(F)c(=O)[nH]1 [Compound 5-FU, 5-fluorouracil, reference compound] | 8.97 µM | 7.8 µM | > 240 µM | >35.0 | > 1000 µM | 359 µM | >2.79 | 14.4 ± 0.65 µM | 1.22 | 450 µM | >2.22 | 3.10 | 34.6 | > 1000 µM | > 1000 µM | 141 µM | >7.09 | 17.6 ± 0.82 µM | > 1000 µM | >128 | IC50 [12]: 3.54 ± 0.72 µM; HCT116 SI (selectivity index) [12]: 4.97 |
| COc1cccc2c1C(=O)c1c(O)c3c(c(O)c1C2=O)C[C@@](O)(C(=O)CO)C[C@@H]3O[C@H]1C[C@H](N)[C@H](O)[C@H](C)O1 [DXR, doxorubicin, reference compound] | – | 0.14 µM | 0.23 µM | >48.4 | > 10 µM | 0.2 µM | >50.0 | – | – | 0.24 µM | >41.7 | – | – | > 10 µM | > 10 µM | 0.33 µM | >30.3 | – | > 10 µM | >71.4 | – |
| N[C@@H](Cc1ccc(N(CCCl)CCCl)cc1)C(=O)O [MPN, melphalan, reference compound] | – | – | – | >11.3 | > 200 µM | – | >11.8 | – | – | – | >9.62 | – | – | > 200 µM | > 200 µM | – | >4.68 | – | > 200 µM | >19.2 | CC50 ([1]; HSC-4, 48 h): 10.4 µM; CC50 ([2]; Homo sapiens): 22.7 µM; CC50 ([4]; HSC-2, 48 h): 17 µM; CC50 ([5]; HSC-3, 48 h): 20.8 µM; CC50 ([9]; Ca9-22, 48 h): 42.7 µM |

More lines, main results first:

| IC50 [6] | SMILES | CC50 ([1]; HSC-4, 48 h, MTT) | CC50 [2, 13] | Average SI [2] | CC50 at 48 h [3] | CC50 ([4]; HSC-2, 48 h, MTT) | HSC-2 SI [4] | IC50 (HT29 colon cancer cells; Homo sapiens, HT-29, 48 h) | HT29 SI (selectivity index) (HT29 colon cancer cells) | CC50 ([5]; HSC-3, 48 h, MTT) | HSC-3 SI [5] | Average SI [6] | PSE (potency-selectivity expression) [6] | CC50 at 48 h [7] | CC50 at 48 h [8] | CC50 ([9]; Ca9-22, 48 h, MTT) | Ca9-22 SI [9] | IC50 [10] | CC50 at 48 h [11] | HSC-4 SI [1] | also measured |
| --- | --- | --- | --- | --- | --- | --- | --- | --- | --- | --- | --- | --- | --- | --- | --- | --- | --- | --- | --- | --- | --- |
| 0.5 µM | COc1ccc(/C=C2\CNC/C(=C\c3ccc(O)c(CN4CCCCC4)c3)C2=O)cc1OC [Compound 2d, 3-[3-(1-Piperidinylmethyl)-4-hydroxybenzylidene]-5-(3,4-dimethoxybenzylidene)-4-piperidone dihydrochloride] | 0.75 µM | < 1 µM | 7.47 | 7 µM | 0.61 µM | <6.18 | < 1 µM | 43.5 | 0.39 µM | <9.67 | 47.9 | 9580 | < 3.77 µM | 2.7 µM | 0.42 µM | <8.98 | 23.5 ± 0.26 µM | < 1.6 µM | – | CC50 ([2]; average of four OSCC cell lines): 0.54 µM; PSE (potency-selectivity expression) ([2]; reciprocal of average CC50 (OSCC) x average SI x 100): > 1000; IC50 (HT29 colon cancer cells): 0.54 ± 0.17 µM |
| 0.9 µM | COc1ccc(/C=C2\CNC/C(=C\c3ccc(O)c(CN4CCN(C)CC4)c3)C2=O)cc1 [Compound 3c] | 1.18 µM | 1 µM | 5.81 | 8.8 µM | 1.1 µM | 5.00 | 0.76 ± 0.26 µM | 17.4 | 1.05 µM | 5.24 | 15.1 | 1678 | 5.5 µM | 4.9 µM | 0.66 µM | 8.33 | 13.2 ± 0.36 µM | 2.8 µM | 4.66 | IC50 [12]: 1.04 ± 0.48 µM; HCT116 SI (selectivity index) [12]: 12.7 |
| 2.31 µM | Cc1ccc(/C=C2\CNC/C(=C\c3ccc(O)c(CN4CCN(C)CC4)c3)C2=O)cc1 [Compound 3d] | 2.29 µM | 1.93 µM | 5.57 | 14.6 µM | 2.2 µM | 4.64 | 0.71 ± 0.29 µM | 31.8 | 1.91 µM | 5.34 | 18.8 | 814 | 10.2 µM | 10.1 µM | 1.3 µM | 7.85 | 22.6 ± 0.59 µM | 6 µM | 4.45 | IC50 [12]: 3.91 ± 1.69 µM; HCT116 SI (selectivity index) [12]: 5.78 |

Reference: paper PMC9572513, “Novel Unsymmetric 3,5-Bis(benzylidene)-4-piperidones That Display Tumor-Selective Toxicity” (Molecules, 2022)
